Experiments:
[1] = target: T1, HCV genotype 1b (BK) NS3 modified enzyme with a R155K mutation (Hepatitis C virus genotype 1b, UniProt P26663, R1181K); assay: HCV NS3 protease time-resolved fluorescence (TRF) assay, genotype 1b R155K; assay type: biochemical; details: Ki 1b R155K, genotype 1b (BK) NS3 R155K; single value
T1 construct: HCV genotype 1b (BK) NS3 modified enzyme
In short: (§1)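 Steps: compound plus NS3/NS4A enzyme for 10 minutes; add peptide substrate to 25 nM; let cleavage proceed 6 hours at room temperature; read product fluorescence (340 nm excitation, 615 nm emission, delayed 400 μs). Enzyme levels gave signal/background 5-20.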

[2] = target: HCV NS3 protease genotype 3a (3A-1) (Hepatitis C virus genotype 3a, UniProt Q81258); assay: HCV NS3 protease time-resolved fluorescence (TRF) assay, genotype 3a; assay type: biochemical; details: Ki 3a
In short: as §1

SMILES	Ki [1] [nM]	Ki [2] [nM]
C=C[C@@H]1C[C@]1(NC(=O)[C@@H]1C[C@@H]2CN1C(=O)[C@H](C1CCCC1)NC(=O)O[C@@H]1CCC[C@H]1CC/C=C/Cc1c(nc3ccccc3c1OCCC1OCCO1)O2)C(=O)NS(=O)(=O)C1(C)CC1 [Example 50, (3aR,7S,10S,12R,21E,24aS)-7-cyclopentyl-19-[2-(1,3-dioxolan-2-yl)ethoxy]-N-[(1R,2S)-2-ethenyl-1-{[(1-methylcyclopropyl)sulfonyl]carbamoyl}cyclopropyl]-5,8-dioxo-1,2,3,3a, 5,6,7,8,11,12,20,23,24,24a-tetradeca hydro-10H-9,12-methanocyclopenta[18,19][1,10,3,6]dioxadiazacyclononadecino[11,12-b] quinoline-10-carboxamide]	0.23	6.6
C=C[C@@H]1C[C@]1(NC(=O)[C@@H]1C[C@@H]2CN1C(=O)[C@H](C(C)(C)C)NC(=O)O[C@@H]1CCC[C@H]1CC/C=C/Cc1c(nc3ccccc3c1OCCN1CCOCC1)O2)C(=O)NS(=O)(=O)C1CC1 [Example 51, (3aR,7S,10S,12R,21E,24aS)-7-tert-butyl-N-{(1R,2S)-1-[(cyclopropylsulfonyl)carbamoyl]-2-ethenylcyclopropyl}-19-[2-(morpholin-4-yl)ethoxy]-5,8-dioxo-1,2,3,3a,5,6,7,8,11,12, 20,23,24,24a-tetradeca hydro-10H-9,12-methanocyclopenta[18,19][1,10,3,6] dioxadiazacyclononadecino[11,12-b] quinoline-10-carboxamide]	0.21	1.9
C=C[C@@H]1C[C@]1(NC(=O)[C@@H]1C[C@@H]2CN1C(=O)[C@H](C(C)(C)C)NC(=O)O[C@@H]1CCC[C@H]1CC/C=C/Cc1c(nc3ccccc3c1OCCn1cccc1)O2)C(=O)NS(=O)(=O)C1CC1 [Example 52, (3aR,7S,10S,12R,21E,24aS)-7-tert-butyl-N-{(1R,2S)-1-[(cyclopropylsulfonyl)carbamoyl]-2-ethenylcyclopropyl}-5,8-dioxo-19-[2-(1H-pyrrol-1-yl)ethoxy]-1,2,3,3a,5,6,7,8,11,12,20, 23,24,24a-tetradeca hydro-10H-9,12-methano cyclopenta[18,19][1,10,3,6]dioxadiazacyclo nonadecino[11,12-b]quinoline-10-carboxamide]	1.1	10
C=C[C@@H]1C[C@]1(NC(=O)[C@@H]1C[C@@H]2CN1C(=O)[C@H](C1CCCC1)NC(=O)O[C@@H]1CCC[C@H]1CC/C=C/Cc1c(nc3ccccc3c1OCCCn1cnnc1)O2)C(=O)NS(=O)(=O)C1(C)CC1 [Example 53, (3aR,7S,10S,12R,21E,24aS)-7-cyclopentyl-N-[(1R,2S)-2-ethenyl-1-{[(1-methylcyclopropyl)sulfonyl]carbamoyl}cyclopropyl]-5,8-dioxo-19-[3-(4H-1,2,4-triazol-4-yl)propoxy]-1,2,3,3a,5,6,7,8,11,12,20,23,24,24a-tetra decahydro-10H-9,12-methanocyclopenta[18,19][1,10,3,6] dioxadiazacyclononadecino[11,12-b] quinoline-10-carboxamide]	0.11	0.55
C=C[C@@H]1C[C@]1(NC(=O)[C@@H]1C[C@@H]2CN1C(=O)[C@H](C1CCCC1)NC(=O)O[C@@H]1CCC[C@H]1CC/C=C/Cc1c(nc3ccccc3c1OCCCN1CCCC1)O2)C(=O)NS(=O)(=O)C1(C)CC1 [Example 54, (3aR,7S,10S,12R,21E,24aS)-7-cyclopentyl-N-[(1R,2S)-2-ethenyl-1-{[(1-methylcyclopropyl)sulfonyl]carbamoyl}cyclopropyl]-5,8-dioxo-19-[3-(pyrrolidin-1-yl)propoxy]-1,2,3,3a,5,6,7,8,11,12,20,23,24,24a-tetradecahydro-10H-9,12-methanocyclopenta[18,19][1,10,3,6] dioxadiazacyclononadecino[11,12-b] quinoline-10-carboxamide]	0.02	0.45
